Values after ≈ are worked out from the molar mass of the structure shown. Active and inactive are the calls of the source. The calls are words filed in the database; no cut-off is given here.
Columns and labels:
[1] = Toxicity in human CD4+ T cell assessed as reduction in cell viability measured after 5 days by eFluor780 staining based flow cytometry analysis; details: 120 h, dose 1-10000 nM, time 5 day
[2] = system: CD4+ T cell; test: Antiinflammatory activity in human CD4+ T cell assessed as reduction in CD25 expression measured after 5 days by eFluor780 staining based flow cytometry analysis; assay type: functional; details: dose 1-10000 nM, time 5.0 day
[3] = system: Th1 cell; test: Inhibition of human naive Th1 cell differentiation assessed as decrease in IFNg production measured after 5 days by MSD assay; assay type: functional, cell-based; details: dose 1-10000 nM, time 5.0 day
[4] = system: Th2 cell; test: Inhibition of human naive Th2 cell differentiation assessed as decrease in IL-4 production measured after 5 days by MSD assay; assay type: functional, cell-based; details: dose 1-10000 nM, time 5.0 day
[5] = system: Th17; test: Inhibition of human memory-derived Th17 cell differentiation assessed as decrease in IL-17 production measured after 5 days by MSD assay; assay type: functional, cell-based; details: time 5.0 day
[6] = system: Th2 cell; test: Inhibition of human naive Th2 cell differentiation assessed as decrease in IL-5 production measured after 5 days by MSD assay; assay type: functional, cell-based; details: time 5.0 day
[7] = system: Th2 cell; test: Inhibition of human naive Th2 cell differentiation assessed as decrease in IL-13 production measured after 5 days by MSD assay; assay type: functional, cell-based; details: time 5.0 day
[8] = Toxicity in human naive Th1 cell assessed as reduction in cell viability at 1 to 10000 nM; assay type: cell-based; details: 10 µM, dose 1-10000 nM
[9] = Toxicity in human naive Th2 cell assessed as reduction in cell viability at 1 to 10000 nM; assay type: cell-based; details: 10 µM, dose 1-10000 nM
[10] = Toxicity in human memory-derived Th17 cells assessed as reduction in cell viability at 1 to 10000 nM; assay type: cell-based; details: th17, 10 µM, dose 1-10000 nM
[11] = Inhibition of JAK/STAT signaling pathway in human CD4+ T cell assessed as inhibition of IL-4 stimulated STAT6 phosphorylation preincubated for 20 to 60 mins followed by IL-4 stimulation measured after 15 mins by flow cytometry analysis; assay type: cell-based
[12] = system: CD14-positive cell; test: Inhibition of JAK/STAT signaling pathway in human CD14-positive cell monocytes isolated from human PBMC assessed as inhibition of IL-13 stimulated STAT6 phosphorylation preincubated for 20 to 60 mins followed by IL-13 stimulation measured after 15 mins by flow cytometry analysis; assay type: cell-based; details: time 35-75 min
[13] = target: T1, Tyrosine-protein kinase JAK1 (Homo sapiens, UniProt P23458); test: Inhibition of JAK1 in human CD14-positive cell monocytes isolated from human PBMC assessed as reduction in mature dendritic phenotype by measuring CD14 expression level at 100 nM measured after 5 days by CD14 APC staining based flow cytometry analysis; details: time 5.0 day
T1 sequence (P23458 whole entry): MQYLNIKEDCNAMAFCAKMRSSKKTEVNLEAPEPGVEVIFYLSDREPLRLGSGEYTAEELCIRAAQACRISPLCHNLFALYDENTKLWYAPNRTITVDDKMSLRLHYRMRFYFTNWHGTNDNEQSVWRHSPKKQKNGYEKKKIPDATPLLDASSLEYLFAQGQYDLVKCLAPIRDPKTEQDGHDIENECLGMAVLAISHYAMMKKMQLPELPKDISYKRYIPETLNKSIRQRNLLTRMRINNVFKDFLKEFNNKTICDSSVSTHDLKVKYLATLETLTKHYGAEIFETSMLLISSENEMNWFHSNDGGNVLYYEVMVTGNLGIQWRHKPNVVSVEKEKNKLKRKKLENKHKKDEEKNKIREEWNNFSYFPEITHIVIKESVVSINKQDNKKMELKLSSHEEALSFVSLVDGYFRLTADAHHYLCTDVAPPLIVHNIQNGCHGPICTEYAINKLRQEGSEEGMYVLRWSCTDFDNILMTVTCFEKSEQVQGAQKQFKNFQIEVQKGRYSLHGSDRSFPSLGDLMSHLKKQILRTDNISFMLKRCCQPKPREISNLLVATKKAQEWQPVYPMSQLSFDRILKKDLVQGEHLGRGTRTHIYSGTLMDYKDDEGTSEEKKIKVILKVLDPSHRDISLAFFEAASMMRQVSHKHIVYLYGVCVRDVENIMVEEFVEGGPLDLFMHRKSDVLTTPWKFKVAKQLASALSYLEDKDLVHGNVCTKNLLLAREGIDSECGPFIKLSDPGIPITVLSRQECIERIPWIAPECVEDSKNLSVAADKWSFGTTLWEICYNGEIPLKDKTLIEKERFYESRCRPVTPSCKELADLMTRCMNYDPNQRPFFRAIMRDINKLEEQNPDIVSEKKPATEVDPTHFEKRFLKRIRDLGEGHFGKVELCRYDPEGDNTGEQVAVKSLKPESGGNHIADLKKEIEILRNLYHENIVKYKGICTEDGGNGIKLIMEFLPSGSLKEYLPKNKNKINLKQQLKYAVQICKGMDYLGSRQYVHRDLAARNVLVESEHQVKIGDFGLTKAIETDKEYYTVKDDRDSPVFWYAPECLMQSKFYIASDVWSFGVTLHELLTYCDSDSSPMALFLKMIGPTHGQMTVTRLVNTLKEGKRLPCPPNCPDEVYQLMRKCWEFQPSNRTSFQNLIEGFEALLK

[14] = target: T1, Tyrosine-protein kinase JAK1; test: Inhibition of JAK1 in human CD14-positive cell monocytes isolated from human PBMC assessed as reduction in mature dendritic phenotype by measuring CD11c expression level at 100 nM measured after 5 days by CD11c PE-CF594 staining based flow cytometry analysis; details: time 5.0 day
[15] = Distribution coefficient between 1-Octanol and aqueous phosphate buffer, logD of the compound at pH 7.4 by shake-flask method; assay type: physicochemical; details: 1-octanol/aqueous phosphate buffer, read-out: logD
[16] = Solubility in phosphate buffer at pH 7.4; assay type: physicochemical
[17] = Plasma protein binding in human assessed as free fraction; assay type: ADME, cell-free
[18] = Inhibition of JAK/STAT signaling pathway in human U-937 cells assessed as inhibition of IL-4 stimulated STAT6 phosphorylation; assay type: cell-based
[19] = Inhibition of JAK/STAT signaling pathway in human U-937 cells assessed as inhibition of IL-13 stimulated STAT6 phosphorylation; assay type: cell-based
[20] = Thermodynamic solubility of the compound in phosphate buffer at pH 7.4 measured after 24 hrs by HPLC-MS analysis; assay type: physicochemical; details: read-out: Therm_solubility
[21] = Thermodynamic solubility of the compound in phosphate buffer at pH 6.5 measured after 24 hrs by HPLC-MS analysis; assay type: physicochemical; details: read-out: Therm_solubility
[22] = Apparent permeability of compound across apical to basolateral side in human Caco-2 cells at pH 7.4; assay type: ADME, cell-based; details: Caco-2, pH 7.4
[23] = Drug uptake in lung of rat at 0.020 micromol/kg, IT; assay type: ADME, tissue-based; details: in vivo, other, dose 0.02 µmol/kg
[24] = AUC(0 to 24 hrs) in rat at 0.020 micromol/kg, IT; assay type: ADME; set-up: dose 0.02 µmol/kg, route it; details: in vivo, 0.02 µmol/kg
[25] = target: T1, Tyrosine-protein kinase JAK1; test: Inhibition of N-terminal GST-tagged human recombinant JAK1 (866 to 1154 residues) expressed in insect cells using FITC-C6-KKHTDDGYMPMSPGVA-NH peptide as substrate incubated for 10 mins measured after 90 mins in presence of ATP by caliper mobility shift assay
[26] = Efflux ratio of apparent permeability across apical to basolateral side in human Caco-2 cells at pH 7.4; assay type: ADME, cell-based; details: Caco-2, pH 7.4
[27] = Volume of distribution at steady state in Han Wistar rat at 0.5 mg/kg, iv; assay type: ADME, organism-based; details: in vivo, read-out: Vdss
[28] = target: Tyrosine-protein kinase JAK2 (Homo sapiens, UniProt O60674); test: Inhibition of N-terminal GST-tagged human recombinant JAK2 (831 to 1132 residues) expressed in insect cells using 5FAM-GEEPLYWSFPAKKK-NH2 peptide as substrate incubated for 10 mins measured after 90 mins in presence of ATP by caliper mobility shift assay
Tyrosine-protein kinase JAK2, sequence (O60674 whole entry, the tested form may be a part): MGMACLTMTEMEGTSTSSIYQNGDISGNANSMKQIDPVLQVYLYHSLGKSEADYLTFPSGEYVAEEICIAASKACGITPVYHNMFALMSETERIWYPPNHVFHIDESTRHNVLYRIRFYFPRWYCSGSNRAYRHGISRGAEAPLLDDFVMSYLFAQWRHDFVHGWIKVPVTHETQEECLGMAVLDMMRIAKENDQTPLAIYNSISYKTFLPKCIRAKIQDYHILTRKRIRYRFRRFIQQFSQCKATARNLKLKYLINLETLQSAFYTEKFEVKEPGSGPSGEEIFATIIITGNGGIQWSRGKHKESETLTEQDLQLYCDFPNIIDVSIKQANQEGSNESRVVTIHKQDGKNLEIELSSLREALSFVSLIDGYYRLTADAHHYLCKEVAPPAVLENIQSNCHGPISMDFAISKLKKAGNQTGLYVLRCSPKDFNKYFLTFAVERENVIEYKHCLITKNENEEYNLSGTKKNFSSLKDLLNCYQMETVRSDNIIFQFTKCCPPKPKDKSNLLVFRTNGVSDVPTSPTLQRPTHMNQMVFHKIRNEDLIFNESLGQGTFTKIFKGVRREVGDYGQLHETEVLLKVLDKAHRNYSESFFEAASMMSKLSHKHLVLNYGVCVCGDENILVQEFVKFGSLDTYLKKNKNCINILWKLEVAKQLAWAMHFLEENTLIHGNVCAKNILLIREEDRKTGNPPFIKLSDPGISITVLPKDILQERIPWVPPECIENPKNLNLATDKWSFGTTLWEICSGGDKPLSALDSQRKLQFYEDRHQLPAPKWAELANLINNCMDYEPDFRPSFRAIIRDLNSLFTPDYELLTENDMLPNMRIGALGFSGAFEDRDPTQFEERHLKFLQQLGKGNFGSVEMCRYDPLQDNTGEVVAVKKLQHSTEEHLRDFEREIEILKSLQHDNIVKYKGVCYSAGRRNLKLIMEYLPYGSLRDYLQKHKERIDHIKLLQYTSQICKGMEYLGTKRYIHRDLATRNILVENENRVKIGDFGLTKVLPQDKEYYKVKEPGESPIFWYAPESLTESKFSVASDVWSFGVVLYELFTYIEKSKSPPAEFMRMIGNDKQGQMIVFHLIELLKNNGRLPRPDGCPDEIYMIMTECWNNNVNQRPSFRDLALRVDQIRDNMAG

[29] = target: T2, Tyrosine-protein kinase JAK3 (Homo sapiens, UniProt P52333); test: Inhibition of N-terminal GST-tagged human recombinant JAK3 (781 to 1124 residues) expressed in insect cells using 5FAM-GEEPLYWSFPAKKK-NH2 peptide as substrate incubated for 10 mins measured after 90 mins in presence of ATP by caliper mobility shift assay
T2 sequence (P52333 whole entry): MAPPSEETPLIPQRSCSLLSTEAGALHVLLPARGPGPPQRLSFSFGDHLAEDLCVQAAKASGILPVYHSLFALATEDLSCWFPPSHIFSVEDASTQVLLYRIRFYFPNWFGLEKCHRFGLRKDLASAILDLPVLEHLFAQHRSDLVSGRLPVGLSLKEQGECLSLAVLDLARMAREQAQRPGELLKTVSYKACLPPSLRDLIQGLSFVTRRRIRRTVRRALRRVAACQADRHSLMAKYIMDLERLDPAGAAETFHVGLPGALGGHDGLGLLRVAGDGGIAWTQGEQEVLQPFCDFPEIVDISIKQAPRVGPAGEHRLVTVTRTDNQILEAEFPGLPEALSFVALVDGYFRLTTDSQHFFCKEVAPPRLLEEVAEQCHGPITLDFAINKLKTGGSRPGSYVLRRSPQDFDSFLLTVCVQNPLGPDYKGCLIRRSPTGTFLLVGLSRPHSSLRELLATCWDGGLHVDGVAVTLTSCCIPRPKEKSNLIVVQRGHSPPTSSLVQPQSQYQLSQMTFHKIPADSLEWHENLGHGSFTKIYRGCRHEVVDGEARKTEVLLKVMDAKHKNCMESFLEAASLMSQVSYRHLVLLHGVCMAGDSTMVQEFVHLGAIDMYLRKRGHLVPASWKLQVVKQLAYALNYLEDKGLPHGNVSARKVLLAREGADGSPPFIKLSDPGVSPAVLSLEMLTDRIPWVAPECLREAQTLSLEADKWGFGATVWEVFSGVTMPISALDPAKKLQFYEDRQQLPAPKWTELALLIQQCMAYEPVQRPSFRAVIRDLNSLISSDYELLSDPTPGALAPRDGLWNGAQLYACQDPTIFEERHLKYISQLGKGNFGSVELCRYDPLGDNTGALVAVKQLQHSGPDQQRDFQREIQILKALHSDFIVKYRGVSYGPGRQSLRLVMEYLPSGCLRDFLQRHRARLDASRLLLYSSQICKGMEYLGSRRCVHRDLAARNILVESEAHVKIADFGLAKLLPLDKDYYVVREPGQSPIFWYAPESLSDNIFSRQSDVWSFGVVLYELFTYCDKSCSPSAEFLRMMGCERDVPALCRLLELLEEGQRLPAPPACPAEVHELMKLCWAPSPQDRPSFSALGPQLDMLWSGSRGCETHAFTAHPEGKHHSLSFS

| SMILES | logD [15] | solubility [16] [µM] | fraction unbound [17] | IC50 [18] [nM] | IC50 [19] [nM] | solubility thermodynamic at 24 h [20] [µM] | Papp A→B [22] [×10⁻⁶ cm/s] | Drug uptake [23] | AUC(0-t) [24] [µM·h] | IC50 [25] [nM] | also measured |
| --- | --- | --- | --- | --- | --- | --- | --- | --- | --- | --- | --- |
| C=CC(=O)Nc1cc(-c2ncnc3[nH]cc(C(=O)OCC)c23)ccc1C |  |  |  |  |  |  |  |  |  |  | Activity [1]: Dose-Dependent Effect; Activity [2]: Dose-Dependent Effect; inhibition [3]: Dose-Dependent Effect; inhibition [4]: Dose-Dependent Effect; inhibition [5]: Dose-Dependent Effect; inhibition [6]: Dose-Dependent Effect; inhibition [7]: Dose-Dependent Effect; Activity [8]: Non-Toxic; Activity [9]: Non-Toxic; Activity [10]: Non-Toxic; IC50 [11]: 134 nM; inhibition [12]: inactive; Activity [13]: Active; Activity [14]: Active |
| COC[C@H](C(=O)Nc1cccc2c(-c3nc(Nc4cccc(S(C)(=O)=O)c4F)ncc3C)c[nH]c12)N1CCN(C)CC1 | 2.4 | 38 (≈ 22.6 µg/mL) | 0.09 | 13 | 18 | 40 (≈ 23.8 µg/mL) | 2.3 | Active | 0.7 |  | solubility thermodynamic at 24 h [21]: 289 µM (≈ 172 µg/mL) |
| Cc1cnc(Nc2cccc(S(C)(=O)=O)c2F)nc1-c1c[nH]c2c(NC(=O)[C@@H](C)N3CCN(C)CC3)cccc12 | 2.5 | 15 (≈ 8.49 µg/mL) | 0.06 | 22 | 32 | 15 (≈ 8.49 µg/mL) | 4.5 | Active | 1.5 | ≤ 4 | efflux ratio [26]: 4.9; Vd [27]: 9.2 L/kg |
| C[C@H](C(=O)Nc1cccc2c(-c3nc(Nc4cccc(S(C)(=O)=O)c4F)ncc3F)c[nH]c12)N1CCN(C)CC1 | 2.7 | 14 (≈ 7.97 µg/mL) | 0.06 | 42 | 56 |  |  |  |  | 20 | IC50 [28]: 17500 nM; IC50 [29]: > 30000 nM |
